The conditions of this data set: for aqueous solubility: pH 6.8.

Converted amounts (≈) assume the structure as drawn. Bounds are passed on as bounds.

In the case of `CCc1nc2cc(-c3c(OC)cccc3OC)ccc2o1`, the MDR1-MDCK efflux ratio amounted to 0.46; the intrinsic clearance, human liver microsomes was 49.6 mL/min/kg; the intrinsic clearance, rat liver microsomes stood at 3760 mL/min/kg; the aqueous solubility (in general, the dissolved amount per volume that the medium holds) is 19 µg/mL (≈ 67.1 µM).

With `O=C(C1CCCN(c2ccc(Cl)nn2)C1)N1CCc2ccccc2C1` (centres undefined), the intrinsic clearance, human liver microsomes was 125 mL/min/kg; the intrinsic clearance, rat liver microsomes turned out to be 1650 mL/min/kg; the aqueous solubility came to 49.8 µg/mL (≈ 139 µM).

Regarding `N#Cc1cccc(CNCc2ccccn2)c1`, the MDR1-MDCK efflux ratio came out at 0.554; the intrinsic clearance, human liver microsomes was at most 4.74 mL/min/kg; the intrinsic clearance, rat liver microsomes was determined as 30.3 mL/min/kg.

`CSc1ccc(C(=O)Nc2cccc(C(=O)NCC(C)C)c2)cc1`: the MDR1-MDCK efflux ratio worked out at 1.59; the intrinsic clearance, human liver microsomes was determined as 119 mL/min/kg; the intrinsic clearance, rat liver microsomes was 2660 mL/min/kg.

For `COCCNC(=O)c1nnc2n(c1=O)CCN2c1ccccc1`, the MDR1-MDCK efflux ratio is 9.52; the intrinsic clearance, human liver microsomes is at most 4.74 mL/min/kg; the intrinsic clearance, rat liver microsomes was at most 10.7 mL/min/kg.

Turning to `Cc1noc(C2CCN(CC(N)=O)CC2)n1`, the intrinsic clearance, human liver microsomes is 9.99 mL/min/kg; the intrinsic clearance, rat liver microsomes was found to be 29.7 mL/min/kg; the aqueous solubility was 30.8 µg/mL (≈ 137 µM).

`COc1cc(OC)cc(C(=O)Nc2nc3c(s2)COc2ccccc2-3)c1` registered an aqueous solubility of 0.39 µg/mL (≈ 1.06 µM).

Take `Cc1ccc(C(N)=O)c(OCc2c(Cl)ccc3cccnc23)c1`: the MDR1-MDCK efflux ratio was 0.372 and the aqueous solubility is 0.61 µg/mL (≈ 1.87 µM).

On to `CCC1(O)CN(c2ncnc3c2c(Br)nn3C)C1`, for which the MDR1-MDCK efflux ratio was determined as 0.85; the intrinsic clearance, human liver microsomes was at most 4.74 mL/min/kg; the intrinsic clearance, rat liver microsomes was determined as 35.2 mL/min/kg; the aqueous solubility worked out at 49.1 µg/mL (≈ 157 µM).

For the compound `O=C(COc1ncnc2ccccc12)NC12CC3CC(CC(C3)C1)C2`, the MDR1-MDCK efflux ratio was determined as 1.2; the intrinsic clearance, human liver microsomes was determined as 62.2 mL/min/kg; the intrinsic clearance, rat liver microsomes came to 468 mL/min/kg; the aqueous solubility was 60.3 µg/mL (≈ 179 µM).

Compound `Cc1ccc2[nH]c(CNC(=O)c3cc(C(F)F)nn3C)nc2c1C` yielded an intrinsic clearance, human liver microsomes of 19.9 mL/min/kg and an intrinsic clearance, rat liver microsomes of 186 mL/min/kg.

`COCC(=O)N1CCN2C(=O)NC[C@H]2C1` showed an aqueous solubility of 38.4 µg/mL (≈ 180 µM).

Take `Cc1nn(C)c(C)c1CNc1ccc(N2CCN(C)CC2)nc1`: the intrinsic clearance, human liver microsomes is at most 4.74 mL/min/kg and the intrinsic clearance, rat liver microsomes is at most 10.7 mL/min/kg.

In turn, `CCCNC(=O)NS(=O)(=O)c1ccc(Cl)cc1` came in with a fraction unbound, human plasma of 0.0933; a fraction unbound, rat plasma of 0.0425; an intrinsic clearance, human liver microsomes of at most 4.74 mL/min/kg; an intrinsic clearance, rat liver microsomes of 15.2 mL/min/kg.

For `O=C(Nc1ccccc1)Nc1ccc(-c2ccc(C(=O)[C@H]3CCC[C@@H]3C(=O)O)cc2)cc1`, the MDR1-MDCK efflux ratio is 5.96; the intrinsic clearance, human liver microsomes was determined as 11.3 mL/min/kg; the intrinsic clearance, rat liver microsomes is 23.8 mL/min/kg.

For `Cc1ccc(-n2cc(C)cn2)c(NC(=O)CN(C)C)c1`, the MDR1-MDCK efflux ratio came to 0.559; the intrinsic clearance, human liver microsomes worked out at 120 mL/min/kg; the intrinsic clearance, rat liver microsomes turned out to be 436 mL/min/kg.

`COc1cccc2c1Oc1nc(-c3ccccc3)[nH]c(=S)c1C2`: the aqueous solubility was 0.35 µg/mL (≈ 1.09 µM).

Consider `CC(=O)NCc1ccc(-c2ccccc2C(=O)O)cc1`, for which the aqueous solubility was 31.2 µg/mL (≈ 116 µM).

Regarding `Cc1cccc(O[C@H]2CN(Cc3ccc(OCCCO)cc3)C[C@@H]2O)c1`, the MDR1-MDCK efflux ratio was 2.24; the intrinsic clearance, human liver microsomes is 71 mL/min/kg; the intrinsic clearance, rat liver microsomes was found to be 702 mL/min/kg; the aqueous solubility is 62 µg/mL (≈ 173 µM).

`CN1[C@@H]2CC[C@H]1C[C@H](OC(c1ccccc1)c1ccccc1)C2`: the MDR1-MDCK efflux ratio came to 7.37; the fraction unbound, human plasma came to 0.128; the fraction unbound, rat plasma came to 0.152; the intrinsic clearance, human liver microsomes came out at 9.86 mL/min/kg. For the same compound, the intrinsic clearance, rat liver microsomes was 1090 mL/min/kg and the aqueous solubility came out at 52.1 µg/mL (≈ 169 µM).

Regarding `CC(C)c1nc(O)c2nnn(C[C@@H]3CCCN(C(=O)C(C)(C)C)C3)c2n1`, the MDR1-MDCK efflux ratio was found to be 34.4; the intrinsic clearance, human liver microsomes turned out to be 29.4 mL/min/kg; the intrinsic clearance, rat liver microsomes was 281 mL/min/kg; the aqueous solubility was found to be 43.9 µg/mL (≈ 122 µM).

As to `Cc1nc(CN2C[C@@H](c3ccc4c(c3)OCO4)[C@@H]3[C@H]2C2CCN3CC2)co1`, the MDR1-MDCK efflux ratio is 53.4; the intrinsic clearance, human liver microsomes stood at 96.7 mL/min/kg; the intrinsic clearance, rat liver microsomes amounted to 205 mL/min/kg; the aqueous solubility is 48.3 µg/mL (≈ 131 µM).

Consider `CC(C)N1CCN(CCCSc2ncc[nH]2)CC1`, for which the intrinsic clearance, human liver microsomes was at most 4.74 mL/min/kg and the intrinsic clearance, rat liver microsomes was 87.1 mL/min/kg.

`O=c1n(Cc2ccncc2)nc2n1-c1cc(Cl)ccc1C1=NCCN12`: the intrinsic clearance, human liver microsomes is 20 mL/min/kg and the intrinsic clearance, rat liver microsomes turned out to be 143 mL/min/kg.

On to `COc1cc(OC)cc(-c2nnc(SCC(=O)Nc3cccc(C(=O)O)c3)s2)c1`, for which the MDR1-MDCK efflux ratio is 0.928; the intrinsic clearance, human liver microsomes is at most 4.74 mL/min/kg; the intrinsic clearance, rat liver microsomes was 48.3 mL/min/kg; the aqueous solubility worked out at 39 µg/mL (≈ 90.4 µM).

Consider `O=C(CSC1CCCC1)NCCn1nc2c(cc1=O)CCCC2`, for which the MDR1-MDCK efflux ratio was found to be 9.14; the intrinsic clearance, human liver microsomes amounted to 71 mL/min/kg; the intrinsic clearance, rat liver microsomes was 1180 mL/min/kg; the aqueous solubility stood at 60.8 µg/mL (≈ 181 µM).

Take `Nc1nc2ccccc2n1C1CCCC1`: the intrinsic clearance, human liver microsomes stood at 37.1 mL/min/kg and the intrinsic clearance, rat liver microsomes was determined as 87.6 mL/min/kg.

The compound `O=c1[nH]c2ccccc2n1C1CCN(S(=O)(=O)Cc2ccccc2)CC1` registered an intrinsic clearance, human liver microsomes of 79.4 mL/min/kg; an intrinsic clearance, rat liver microsomes of 6660 mL/min/kg; an aqueous solubility of 2.65 µg/mL (≈ 7.13 µM).

Turning to `Cc1ncc(CN2CCC(Nc3ccc4nnnn4n3)C(C)C2)s1` (centres undefined), the MDR1-MDCK efflux ratio was determined as 27.5; the fraction unbound, human plasma amounted to 0.449; the fraction unbound, rat plasma was 0.379; the intrinsic clearance, human liver microsomes was 16.2 mL/min/kg. Besides, the intrinsic clearance, rat liver microsomes came to 122 mL/min/kg.

The compound `COc1ncccc1NC(=O)c1cccc(C)n1` had an intrinsic clearance, human liver microsomes of 150 mL/min/kg; an intrinsic clearance, rat liver microsomes of 184 mL/min/kg; an aqueous solubility of 23.9 µg/mL (≈ 98.2 µM).

`O=C(NCC1CC1)c1ccc(-n2ccnc2)nc1`: the MDR1-MDCK efflux ratio came to 1.08; the intrinsic clearance, human liver microsomes is at most 4.74 mL/min/kg; the intrinsic clearance, rat liver microsomes stood at 23.2 mL/min/kg; the aqueous solubility worked out at 45.2 µg/mL (≈ 186 µM).

With `Cc1csc(CN(C)c2ccnc(N(C)C)n2)n1`, the MDR1-MDCK efflux ratio was determined as 0.578; the intrinsic clearance, human liver microsomes was 11.8 mL/min/kg; the intrinsic clearance, rat liver microsomes worked out at 546 mL/min/kg; the aqueous solubility stood at 45.8 µg/mL (≈ 174 µM).

As for `Cc1ccc(C(=O)Nc2ccccc2-c2ccccc2)o1`, the MDR1-MDCK efflux ratio was found to be 0.465; the intrinsic clearance, human liver microsomes is 257 mL/min/kg; the intrinsic clearance, rat liver microsomes was 503 mL/min/kg; the aqueous solubility was 35.5 µg/mL (≈ 128 µM).

Regarding `CN(Cc1ccccc1N1CCCC1)C(=O)c1cccc(Cn2ccnc2)c1`, the MDR1-MDCK efflux ratio came to 21.7; the intrinsic clearance, human liver microsomes was 392 mL/min/kg; the intrinsic clearance, rat liver microsomes came to 1520 mL/min/kg; the aqueous solubility stood at 61.6 µg/mL (≈ 164 µM).

For `CN(C)C(=O)c1ccc(NC(=O)c2cccc(F)c2)cc1`, the MDR1-MDCK efflux ratio was 0.927; the intrinsic clearance, human liver microsomes came to 9.98 mL/min/kg; the intrinsic clearance, rat liver microsomes was determined as 69.2 mL/min/kg; the aqueous solubility worked out at 46.5 µg/mL (≈ 162 µM).

As for `O=C(C1CC1)N1CC[C@@H](Cc2n[nH]c(=O)n2-c2ccc(-c3ccc4occc4c3)cc2)C1`, the MDR1-MDCK efflux ratio is 61.1; the intrinsic clearance, human liver microsomes worked out at 20.4 mL/min/kg; the intrinsic clearance, rat liver microsomes was 101 mL/min/kg; the aqueous solubility was found to be 40.1 µg/mL (≈ 93.6 µM).

On to `Cc1nc(NCC(C)(C)c2ccccc2)n(C)n1`, for which the MDR1-MDCK efflux ratio worked out at 1.07; the intrinsic clearance, human liver microsomes came to 10.7 mL/min/kg; the intrinsic clearance, rat liver microsomes stood at 235 mL/min/kg; the aqueous solubility was determined as 36.2 µg/mL (≈ 148 µM).

Turning to `COc1cc(Br)c(Nc2nc(-c3c(C)nc4ncccn34)cs2)c(Br)c1`, the MDR1-MDCK efflux ratio is 2.59; the intrinsic clearance, human liver microsomes turned out to be 75.9 mL/min/kg; the intrinsic clearance, rat liver microsomes was 519 mL/min/kg; the aqueous solubility came to 29.1 µg/mL (≈ 58.7 µM).

Regarding `Cc1ccccc1C(=O)N1CCC[C@@H]1Cn1nnn(-c2cccs2)c1=O`, the MDR1-MDCK efflux ratio turned out to be 1.11; the intrinsic clearance, human liver microsomes is 114 mL/min/kg; the intrinsic clearance, rat liver microsomes was 929 mL/min/kg; the aqueous solubility worked out at 49 µg/mL (≈ 133 µM).

`Cc1cccc(OCC(=O)Nc2ccn(C)n2)c1` displayed an intrinsic clearance, human liver microsomes of 21.1 mL/min/kg; an intrinsic clearance, rat liver microsomes of 479 mL/min/kg; an aqueous solubility of 43.5 µg/mL (≈ 177 µM).

Regarding `O=C(NCCc1csc(N2CCCC2)n1)N1CCSCC1`, the MDR1-MDCK efflux ratio came out at 4.26; the intrinsic clearance, human liver microsomes is 61.9 mL/min/kg; the intrinsic clearance, rat liver microsomes is 882 mL/min/kg; the aqueous solubility came to 52.6 µg/mL (≈ 161 µM).

As to `CNC(=O)c1ccc(Nc2ncc(C(F)(F)F)c(NCc3nccnc3N(C)S(C)(=O)=O)n2)cc1`, the intrinsic clearance, human liver microsomes turned out to be 28.1 mL/min/kg; the intrinsic clearance, rat liver microsomes amounted to 141 mL/min/kg; the aqueous solubility amounted to 1.9 µg/mL (≈ 3.72 µM).

`O=C(CCc1cnn(-c2ccccc2)c1)N1CCC(n2c(=O)[nH]c3ccccc32)CC1` returned an intrinsic clearance, human liver microsomes of 567 mL/min/kg and an intrinsic clearance, rat liver microsomes of 3770 mL/min/kg.

`Cn1nc(C2CC2)c2[nH]c(-c3cccc(CN4CCOCC4)c3)nc21`: the MDR1-MDCK efflux ratio turned out to be 52; the intrinsic clearance, human liver microsomes was 18.8 mL/min/kg; the intrinsic clearance, rat liver microsomes is 244 mL/min/kg; the aqueous solubility stood at 49.4 µg/mL (≈ 147 µM).

For the compound `NCCCc1nc(-c2ccncc2)cs1`, the intrinsic clearance, human liver microsomes was 29.3 mL/min/kg and the intrinsic clearance, rat liver microsomes was determined as 239 mL/min/kg.

In turn, `Cn1c(=O)cc(N2CCC[C@@H](N)C2)n(Cc2cc(F)ccc2C#N)c1=O` had an intrinsic clearance, human liver microsomes of at most 4.74 mL/min/kg and an intrinsic clearance, rat liver microsomes of at most 10.7 mL/min/kg.

On to `O=C(O)Cc1ccc(Oc2ccncc2)cc1`, for which the MDR1-MDCK efflux ratio was 1.2; the intrinsic clearance, human liver microsomes was at most 4.74 mL/min/kg; the intrinsic clearance, rat liver microsomes was at most 10.7 mL/min/kg.

The values above are taken from the Biogen ADME set (Fang et al. 2023).
